Measurements from paper PMC5467173, “Blood-brain-barrier spheroids as an in vitro screening platform for brain-penetrating agents” (Nature Communications, 2017).

Columns and labels:
[1] = tested on: multicellular BBB spheroids (astrocytes, HBVP and hCMEC/D3); assay: Transport of fluorescently labelled peptides / CPP screen in multicellular BBB spheroids (hCMEC/D3), confocal microscopy; assay type: in vitro ADME, human
Description: Sterile 1% agarose (w/v) was prepared by adding […] of molecular biology grade agarose (Bio-rad) into 50 ml of PBS in a conical flask, and boiled in a microwave until completely dissolved. The melted agarose solution was transferred into a sterile tissue culture hood, and 50 μl of the solution was dispensed into each well of a 96-well plate while it was still hot using a multi-channel pipette, and allowed to cool/solidify (∼15 min). Primary human astrocytes, HBVP and HBMEC were released by trypsin/EDTA (Thermo Scientific) and resuspended in HBMEC working medium. The concentration of each cell type was determined using a haemocytometer. 1 × 10^3 of each cell type was seeded onto the agarose gel in each well of the 96-well plate in a 1:1:1 ratio (final volume=100 μl). Cells were placed in a humidified incubator at 37 °C with 5% CO2, and 95% natural air for 48–72 h to allow for the assembly of multicellular BBB spheroids. For spheroid formation using the immortalized hCMEC/D3 EC line: hCMEC/D3, astrocytes and HBVP were released by trypsin/EDTA and resuspended in hCMEC/D3 working medium. 1.5 × 10^3 of each cell type were seeded onto the agarose gel in each well of the 96-well plate in a 1:1:1 ratio, and spheroids were allowed to form as described above.
Angiopep-2 (or scramble) peptide labelled with a Cy5 was added into each tube at a final concentration of 5 and 10 μM, and incubated for 3 h at 37 °C on a rotator. Spheroids were washed with PBS, fixed with 3.7% formaldehyde and imaged using a confocal microscope as described in earlier sections. […] The same methodology was applied for angiopep-2/scramble peptide labelled with a TAMRA (tetramethylrhodamine) dye. To inhibit transcytosis, spheroids were incubated with each peptide (5 μM final concentration) in cold working medium (on ice) for 3 h. For cryo-sectioning, spheroids were embedded in optimum cutting temperature compound (Tissue-Tek, Sakura Finetek, Torrance, CA), frozen on dry ice and sliced into 10 μm sections. Spheroid sections were imaged under a Nikon epi-fluorescence inverted microscope. […]

[2] = cited from earlier work
Description: Because most drugs are non-fluorescent, we explored an alternative strategy to detect drugs within the BBB spheroids using matrix-assisted laser desorption/ionization mass spectrometry imaging (MALDI-MSI).

[3] = tested on: BBB spheroids (astrocytes, HBVP and hCMEC/D3 cells); assay: Evaluation of small molecule transport into BBB spheroids using MALDI-MSI; assay type: in vitro ADME, human; conditions: 10 μM, 24 h, 37 °C; 12 μm sections; 30 μm pixel step; nspheroid=150, ntissue=2
Description: BBB spheroids were established (using astrocytes, HBVP and hCMEC/D3 cells) for 48 h as described earlier. Approximately 150 spheroids per group were pooled into a 1.5 ml microcentrifuge tube in 1 ml of hCMEC/D3 working media. BKM120 or Dabrafenib was added into each tube at a final concentration of 10 μM and incubated for 24 h at 37 °C under constant rotation. Spheroids were washed 5 × with wash buffer (150 mM ammonium acetate in HPLC grade water, pH 7), and then transferred into an UltraFlux 0.2 ml PCR tube (BioExpress) in 200 μl of wash buffer. The spheroids were then, pooled at the bottom of the tube, and snap-frozen in a dry ice/ethanol bath. The top of the frozen tube was mounted onto a cryostat holder, and the bottom of the tube containing the spheroids was sectioned into 12 μm slices using a Microm HM550 cryostat, with the chamber and the specimen holder chilled at −26 °C. Sectioned tissues embedded in the frozen wash buffer were thaw-mounted onto indium tin oxide (ITO) coated microscopic slides (Bruker Daltonics) for MALDI-MSI, and regular positively charged glass slides for haematoxylin and eosin (H/E) staining. The tissues were allowed to dry for at least 15 min in a dessicator. […]

[4] = tested on: BBB spheroid surface barrier; assay: Co-incubation with high molecular weight dextran (integrity of spheroid surface barrier); conditions: drug 10 μM with FITC-dextran 70 kDa 10 μg ml^−1, 24 h; 88 μm depth; nspheroid=3–6
Description: Multicellular BBB spheroids were formed through co-culturing astrocytes, HBVP and either HBMEC or hCMEC/D3 as described earlier for 48 h. Spheroids were incubated with increasing concentration of VEGF-A (between 5 and 100 ng ml^−1) and 10 μg ml^−1 of TRITC-Dextran (155 kDa; Sigma-Aldrich) or FITC-Dextran (70 kDa; Sigma-Aldrich) in the appropriate working medium for 24 h at 37 °C with 5% CO2. Spheroids were washed 3 times with PBS (5 min each), transferred into a Nunc Lab-Tek II thin-glass 8-well chambered coverglass (Thermo Scientific) and imaged under a confocal microscope as described earlier. Quantification of spheroid permeability to fluorescent dextran was performed using ImageJ software (http://imagej.net/Fiji). The mean fluorescence intensity of the core of each spheroid at 88 μm depth was quantified and plotted using GraphPad Prism (version 7.0 software).
To examine if angiopep-2 affects the overall permeability of the spheroid surface barrier, spheroids were co-incubated with 10 μM of TAMRA-angiopep (or TAMRA-scramble) and FITC-dextran (70 kDa; 10 μg ml^−1) as described earlier for 3 h at 37 °C on a rotator. […] The mean TAMRA and FITC fluorescence intensity of the core of each spheroid at 88 μm depth was quantified using ImageJ software and plotted using GraphPad Prism.

[5] = Stability in hCMEC/D3 working media containing 2% human serum; assay type: in vitro ADME; conditions: Cy5.5-CPP 5 μM in hCMEC/D3 working media (2% human serum), 37 °C, LC-MS extracted ion current, (EICt3/EICt0) × 100
Description: Cy5.5-angiopep and Cy5.5-scramble. Angiopep and scramble peptides (50 μM) were incubated in hCMEC/D3 working media (containing 2% human serum) at 37 °C. […] The material was resuspended in 30 μl of 50:50 water:acetonitrile containing 0.1% TFA. […] The process was repeated (n=3) for each peptide.

brain parenchyma = assay: Ex vivo imaging of angiopep-2 in mouse brain after tail vein injection; conditions: Cy5.5-labelled peptide, 100 μg via tail vein, mice killed after 24 h
Description: Cy5.5-angiopep-2 or Cy5.5-scramble were diluted to a final concentration of 1 mg ml^−1 in 0.9% NaCl irrigation solution (Hospira, Lake Forest, IL). 100 μl of each peptide (total of 100 μg) was administered intravenously via tail vein injection. After 24 h, mice were killed (by CO2 asphyxiation), and immediately perfused with PBS followed by 10% formalin solution (Sigma-Aldrich). Brains were excised, and a coronal cut through the cerebral cortex was made with a sharp scalpel. The brains were washed several times with PBS containing 0.05% Tween-20, and incubated with DyLight 488 lectin (Vector Laboratories, Burlingame, CA) and Hoechst dye (Life Technologies; 1:1,000 dilution) for 1 h in PBS containing 0.02% Tween-20. This was followed by 3 washes (15 min each) with PBS containing 0.05% Tween-20. […] The brain tissue was imaged under a confocal microscope using a × 40 oil immersion objective. Z-slices captured through each spheroid (up to 100 μm-deep) were merged to generate a 2D maximum intensity projection using the ZEN blue imaging software (version 2012). Animal experiments described here are listed in the Brigham and Women’s Hospital Animal Experimentation Protocol 2016N000300 Translational Neurooncology Core (BWH IACUC approved 2016).

[6] = tested on: hCMEC/D3 / HBVP / astrocyte triple co-culture transwell model; assay type: in vitro ADME, human
Description: Both the apical and basal sides of 24-well transwell insert (0.4 μm pore size; Greiner Bio-One, Cat. # 662,641) were coated with rat-tail collagen (5 μg ml^−1 in PBS; Olaf Pharmaceuticals, Worcester, MA) overnight at 4 °C. Each transwell was inverted, and 5 × 10^4 HBVP cells (in 50 μl pericyte medium) were seeded on the basal side of the insert. The inserts were encased in an inverted plate, and allowed to adhere in a humidified incubator for 2 h at 37 °C with 5% CO2. Inserts were then removed and placed within a 24-well plate (upright) containing 300 μl pericyte medium, ensuring that the HBVP cells on the basal side of the insert was properly submerged in the medium. […] hCMEC/D3 cells were seeded on the apical side of the insert (in 200 μl volume) in EGM-2. In a separate 24-well plate, 5.0 × 10^4 astrocytes were seeded in AGM. […] TEER measurements of inserts without cells were subtracted from TEER values obtained from inserts containing cells (measured in ohms (Ω)). […]
After 84 h of co-culture in the transwell, TAMRA- angiopep-2 or TAMRA-scramble were added into the apical side of the insert at a final concentration of 10 μM. […] To assess the apical-to-basolateral permeability, the mean fluorescence intensity of the basal side of the transwell was quantified over time using ImageJ software and plotted using GraphPad Prism.

[7] = tested on: multicellular BBB spheroids (astrocytes, HBVP and HBMEC); assay: Transport of fluorescently labelled peptides into multicellular BBB spheroids (primary HBMEC), confocal microscopy; assay type: in vitro ADME, human
Description: Multicellular BBB spheroids (composed of astrocytes, HBVP and HBMEC (or hCMEC/D3)) were established for 48–72 h as described earlier, and pooled into a 1.5 ml Lobind microcentrifuge tube (Eppendorf) in 1.0 ml HBMEC (or hCMEC/D3) working media. […] Spheroids were washed with PBS, fixed with 3.7% formaldehyde and imaged using a confocal microscope as described in earlier sections. The mean fluorescence intensity inside each spheroid at 88 μm depth was quantified using ImageJ software and plotted using GraphPad Prism. […] To inhibit transcytosis, spheroids were incubated with each peptide (5 μM final concentration) in cold working medium (on ice) for 3 h. For cryo-sectioning, spheroids were embedded in optimum cutting temperature compound (Tissue-Tek, Sakura Finetek, Torrance, CA), frozen on dry ice and sliced into 10 μm sections. Spheroid sections were imaged under a Nikon epi-fluorescence inverted microscope.

Molecule: VPALR [Bip(1), Cy5.5-labelled hydrophobic CPP from natural protein]
- Influx rate at earlier time points (15 min–1 h) [1]: highest influx rate

Molecule: CC(C)(C)c1nc(-c2cccc(NS(=O)(=O)c3c(F)cccc3F)c2F)c(-c2ccnc(N)n2)s1 [dabrafenib]
- BBB penetrance [2]: limited BBB penetrance
- Drug detected in sections of BBB spheroids by MALDI-MSI [3]: not detected
- Effect on ability of BBB spheroids to restrict entry of high molecular weight dextran [4]: did not affect

Molecule: VSALK [Bip(2), Cy5.5-labelled hydrophobic CPP from natural protein]
- Influx rate at earlier time points (15 min–1 h) [1]: highest influx rate

Molecule: RKKRRQRRR [HIV-1 Tat, established brain-penetrating standard]
- product remaining after 3 h in working media [5]: 50%

Molecule: angiopep-2
- Accumulation in the brain parenchyma in vivo (fluorescence of brain cryosections) (brain parenchyma): extravasation and accumulation
- Apical-to-basolateral permeability in co-culture transwell compared to inserts with no ECs [6]: significantly lower permeability
- Transwell permeability of angiopep-2 versus scrambled control [6]: unable to differentiate
- Influx of TAMRA-labelled peptide on co-incubation with FITC-dextran ([7]; 10 μM peptide, FITC-dextran 70 kDa 10 μg ml^−1, 3 h, 37 °C, 88 μm depth, nspheroid=3–6, nexperiment=3, versus scrambled peptide): significantly higher influx
- Peptide level in the core of fixed, cryosectioned spheroids (fluorescence microscopy) ([7]; 10 μm cryosections, epi-fluorescence): high level
- Influx of Cy5-labelled peptide at 4 °C (transcytosis inhibited) versus 37 °C ([7]; spheroids with primary HBMECs, 10 μM, 3 h, 88 μm depth): significantly reduced
- Influx of Cy5-labelled peptide into spheroid (mean Cy5 intensity at 88 μm depth) ([7]; spheroids with primary HBMECs, 5 and 10 μM, 3 h, 37 °C, confocal microscopy, compared with scrambled control, nspheroid=10, nexperiment=3): substantial influx

Molecule: Nc1cc(C(F)(F)F)c(-c2cc(N3CCOCC3)nc(N3CCOCC3)n2)cn1 [BKM120]
- BBB penetrance [2]: known to cross the BBB
- Drug detected in sections of BBB spheroids by MALDI-MSI [3]: dramatic accumulation
- Effect on ability of BBB spheroids to restrict entry of high molecular weight dextran [4]: did not affect

Molecule: LRRERQSRLRRERQSR [DPV15]
- Influx rate at earlier time points (15 min–1 h) [1]: highest influx rate
